A short description of data set [1]: Cytotoxicity by CCK8 analysis in HT-29 cells. As to conditions: human, HT-29 cells, read-out: Cell viability (%). The data set is classed as cell-based, human. How it is done:
(§1) Necroptosis was induced by pretreatment with TNF‐α (20 ng·mL^−1) plus z‐VAD‐fmk (20 μM) and Smac mimetic (BV6, 2 μM) for 8 h, then stained cells with hematoxylin/eosin. For PI/Hoechst staining, cells were stained with PI and Hoechst for 20 min, then photographed with a fluorescence microscope and at least 300 cells were counted. The ratio of PI positive cells (%) = (PI positive cells) / (Hoechst positive cells) × 100%. For cell viability assay, CCK8 was added to the well and incubated for 1 − 2 h and then OD450 was measured using a multi-mode microplate reader (Cytation5, BioTek).

For data set [2], the system named is HT-29 cells. The data set can be described thus: Cytotoxicity by CCK8 analysis in HT-29 cells. The data set is classed as cell-based, human. The procedure:
as §1

Data set [3] relates to apoptosis and pyroptosis of IECs. Description: Apoptosis and pyroptosis markers in IECs of DSS-treated mice (TUNEL, cleaved caspase-3, Bcl-2, Bax, GSDMD-NT, caspase-1 p20). As to conditions: for BAX/BCL / GSDMD / caspase-1 / caspase-3: replicates. Also on record: GSDMD / caspase-1 / caspase-3: scale not given here. Format: in vivo, mouse. How it is done:
Tissues and cells were lysed using RIPA lysis buffer (Beyotime Biotechnology) containing protease and phosphatase inhibitor, homogenated, and centrifuged. The protein concentration was determined by BCA protein assay (Beyotime Biotechnology). Equal concentrations of proteins were separated in a 10% SDS-PAGE and transferred to PVDF membrane. The membrane was blocked using 5% milk in TBST, probed with primary antibody, RIPK1 (17519-1-AP, Proteintech, 1:1000), MLKL (GTX107538-100, GeneTex, 1:1000), RIPK3 (17563-1-AP, Proteintech, 1:1000), p-MLKL (EPR9514, Abcam, 1:1000), PKA (bs-0520R, Bioss, 1:1000), p-PKA (#9621, Cell signaling, 1:1000), CREB (AF6188, Affinity, 1:1000), p-CREB (AF3189, Affinity, 1:1000), P2Y14R (bs-12028R, Bioss, 1:1000), GSDMD (ab209845, Abcam, 1:1000), Caspase1 p20 (bs-10442R, Bioss, 1:1000), Bcl-2 (bs-0032R, Bioss, 1:1000), Bax (AF0120, Affinity, 1:1000), Caspase-3 p-17 (Cell Signaling Technology, #9664, 1:1000), β-actin (bs-0061R, Bioss, 1:1000), GAPDH (BS-2188R, Bioss, 1:1000) and corresponding HRP-conjugated antibodies Goat Anti-Rabbit IgG H&L Antibody (bioss, Bs-0295G, 1:8000) or Goat Anti-Mouse IgG H&L Antibody (bioss, Bs-0296G, 1:8000). Densitometry was quantified using ImageJ software.
Immunofluorescence staining was performed using paraffin-embedded tissues as mentioned before. For immunofluorescence, the paraffin slides were deparaffinized, rehydrated, blocked and treated according to a standard protocol. The expression of intestinal barrier associated tight junction protein, P2Y14R and EpCAM was evaluated by probing the tissues with primary antibody against Claudin-1 (bioss, bs-10011R, 1:300), Occludin (bioss, DF6919, 1:300), ZO-1 (Affinity, AF5145, 1:300), EpCAM (AiFang, AF04654, 1:300), Caspase-3 p-17 (Cell Signaling Technology, #9664, 1:1000) and P2Y14R (Invitrogen, PAS-103202, 1:300) overnight at 4°C followed by 1 h incubation with the corresponding secondary antibody Goat Anti-Mouse IgG H&L (Alexa Fluor® 555) (ab150114, Abcam, 1:500) or Goat Anti-Rabbit IgG H&L (Alexa Fluor® 488) (ab150077, Abcam, 1:300). All slides were incubated with DAPI (S2110, Solarbio) for 10 min to show the location of the nucleus. Images were captured with a confocal microscope (LSM 800, Zeiss).
TUNEL staining was performed using paraffin-embedded tissues as mentioned before. The staining was performed with apoptosis kit (11684817910, Roche) to detect apoptotic cells in colon sections according to the instructions of manufacturer. After the paraffin sections conventional dewaxing to water, performed the antigen recovery with protease K working solution at 37°C for 22 min. Then incubated the sections with permeabilize working solution at room temperature for 20 min. Next, take appropriate amount of TDT enzyme, dUTP and buffer in the tunel kit according to the number of slices and tissue size and mix at 1:5:50 ratio, and used to incubate the tissues at 37°C for 1 h. Finally, the DAPI dye (S2110, Solarbio) was used to stain nucleus at room temperature for 10 min. Images were captured with NanoZoomer S60 (C13210-01, Hamamatsu).

For data set [4], the system named is intestinal organoids. The data set can be described thus: TSZ-induced necroptosis in intestinal organoids (PI staining). Format: cell-based, mouse. Conditions: P2Y14Rfl/fl organoids, pre-treated with compound. How it is done:
Crypts were released from the murine small intestine by incubation for 30 min at 4°C in PBS containing 2 mM EDTA. Isolated crypts were counted and pelleted. […] Organoid media were changed every 3 days. […] Dead cell imaging in live organoids was performed on the fluorescence microscope (BX53, Olympus Optical), and analyzed by image j.

“And” between values parts separate entries of the source, which are not always exact repeats. Equal values may be shown once.

In the case of `Brc1ccc(NCc2nc3ccccc3o2)cc1` [HDL-16], the viability at 12 h, 1 nM in data set [1] (1 nm) came out at 108%. Further, the viability at 12 h, 1 µM in data set [1] (1 μm) was 117%. The viability at 12 h, 10 µM in data set [1] (10 μm) amounted to 103%. Also, in data set [1] (100 nm), the viability at 12 h, 100 nM worked out at 109%. Moreover, the “Cell viability (%)” value in data set [2] (1 nm) was 114%; in data set [2] (1 μm), 116%; in data set [2] (10 nm) it was 95% and 93% and 119% and 111%; in data set [2] (10 μm) it was 115% and 106% and 113%; in data set [2] (100 nm) it was 110% and 99%. Besides, the “Cytotoxicity in HT-29 cells” value in data set [2] (CCK8, 12 h, under the concentration of 10 μM) is given as “almost no cytotoxicity”. Moreover, the BAX/BCL is 7.829 and 4.146 and 3.473 and 3.902 and 4.249 in data set [3] (DSS+HDL-16-H (high dose)); 6.676 and 3.513 and 3.416 and 6.035 and 4.817 in data set [3] (DSS+HDL-16-L (low dose)). Further, the GSDMD in data set [3] (DSS+HDL-16-H (high dose)) was 1.314 and 1.225 and 1.812 and 1.35 and 1.898; in data set [3] (DSS+HDL-16-L (low dose)) it was 1.693 and 1.518 and 1.46 and 1.354 and 1.839. The caspase-1 is 2.375 and 1.892 and 1.815 and 1.586 and 3.381 in data set [3] (DSS+HDL-16-H (high dose)); 2.037 and 2.2873 and 0.9771 and 2.5083 and 2.278 in data set [3] (DSS+HDL-16-L (low dose)). Moreover, the caspase-3 in data set [3] (DSS+HDL-16-H (high dose)) was 2.22 and 2.236 and 2.6476 and 2.354 and 2.345; in data set [3] (DSS+HDL-16-L (low dose)) it was 2.396 and 2.3353 and 3.098 and 2.578 and 2.264. Also, in data set [3] (DSS-induced inflammation, TUNEL and western blot), the “Apoptosis and pyroptosis of IECs” value is “did not influence the apoptosis and pyroptosis”. In addition, the “TSZ-induced necroptosis of organoids (PI staining)” value in data set [4] is “protected P2Y14R^fl/fl organoids from TSZ-induced necroptosis”.

What is called viability is a read-out of living cells in per cent, often relative to untreated cells.
